The values below come from paper PMC6273194, “Synthesis and Evaluation of Aminothiazole-Paeonol Derivatives as Potential Anticancer Agents” (Molecules, 2016).

In assay [1] the test system is human pancreas adenocarcinoma (PaTu8988t) cells. The experiment in a line: MTT cell viability assay, PaTu8988t. It is filed as cell-based. The note with it: PaTu 8988t, 48 h. The procedure:
(§1) Cell lines, including human gastric adenocarcinoma (AGS), human cervix adenocarcinoma (HeLa), human pancreas adenocarcinoma (PaTu8988t), human colorectal adenocarcinoma (HT-29), human glioblastoma (U87-MG), human lung adenocarcinoma (A549), mouse colon carcinoma (CT26.WT) cells and embryonic fibroblast (BALB/3T3) were purchased from Bioresource Collection and Research Center (BCRC, Taiwan) to evaluate anticancer activity of aminothiazole-paeonol derivatives. Five cell lines were cultured in different media from Gibco (Life Technologies, Grand Island, NY, USA) and Hyclone (GE Healthcare Life Science). Cells were cultured in 90% medium mixed with 10% serum at 37 °C in humidified atmosphere with 5% CO2 and grown in T-75 flask with a feeding cycle of two to three days. The composition and procedures of preparing culture media for different cell lines were followed by instruction manual of suppliers.
(§2) The different cell lines were seeded into 96-well tissue culture plates at a concentration of 5 × 10^3 cells/100 µL/well overnight. Subsequently, the cells were treated with serial concentrations of seven paeonol derivatives. After 48 h of incubation, cell viability of each cell line was determined by MTT colorimetric assay. Briefly, 100 µL of 2 mg/mL MTT reagent (Sigma-Aldrich, St. Louis, MO, USA) was added to each well and incubated for 4 h at 37 °C. Later, the medium was aspirated and 100 µL of dimethyl sulphoxide (DMSO) added to each well; finally, the OD595 of each well was measured by ELISA reader (TECAN, Wien, Austria).

For assay [2], the system named is mouse colon carcinoma (CT26.WT) cells. The experiment in a line: MTT cell viability assay, CT26.WT. It is filed as cell-based. The note with it: 48 h. The procedure: as §1, §2
Assay [3] deals with human lung adenocarcinoma (A549) cells. The experiment in a line: MTT cell viability assay, A549. The following applies: A549, 48 h. It is filed as cell-based. The procedure: as §1, §2
On the technique in general: Tetrazolium dyes change colour on reduction, which living cells bring about.

For assay [4], the system named is human gastric adenocarcinoma (AGS) cells. Briefly: MTT cell viability assay, AGS. It is filed as cell-based. The following applies: 48 h. The procedure:
as §1, §2

The test system of assay [5] is human colorectal adenocarcinoma (HT-29) cells. The experiment in a line: MTT cell viability assay, HT-29. The following applies: HT-29, 48 h. It is filed as cell-based. The procedure: as §1, §2
In assay [6] the test system is human glioblastoma (U87-MG) cells. The experiment in a line: MTT cell viability assay, U87-MG. The note with it: U-87 MG, 48 h. It is filed as cell-based. The procedure:
as §1, §2

Assay [7] deals with human cervix adenocarcinoma (HeLa) cells. Briefly: MTT cell viability assay, HeLa. It is filed as cell-based. The note with it: 48 h. The procedure:
as §1, §2

The test system of assay [8] is BALB/3T3 cells. Briefly: MTT cell viability assay, embryonic fibroblast BALB/3T3. It is filed as cell-based. The following applies: Mus musculus, BALB/3T3 fibroblasts, 48 h. The procedure: as §1, §2
Assay [9] concerns human cervix adenocarcinoma (HeLa) cells. The following applies: 48 h after treatment, ref [25],[26],[27],[28],[29],[30],[31],[32]; cited from earlier work.
The subject of assay [10] is BALB/3T3 cells. The note with it: BALB/3T3, 72 h after treatment; ref [25],[26],[27],[28],[29],[30],[31],[32]; cited from earlier work.
Assay [11] deals with human glioblastoma (U87-MG) cells. The following applies: 48 h after treatment, ref [25],[26],[27],[28],[29],[30],[31],[32]; cited from earlier work.
Assay [12] deals with human gastric adenocarcinoma (AGS) cells. The following applies: 24 h after treatment, ref [25],[26],[27],[28],[29],[30],[31],[32]; cited from earlier work.
The subject of assay [13] is human lung adenocarcinoma (A549) cells. The note with it: A549, 48 h after treatment; ref [25],[26],[27],[28],[29],[30],[31],[32]; cited from earlier work.
Assay [14] has as its system human colorectal adenocarcinoma (HT-29) cells. The following applies: HT-29, 48 h after treatment; ref [25],[26],[27],[28],[29],[30],[31],[32]; cited from earlier work.
Assay [15] has as its system mouse colon carcinoma (CT26.WT) cells. The following applies: 72 h after treatment, ref [25],[26],[27],[28],[29],[30],[31],[32]; cited from earlier work.
For assay [16], the system named is human pancreas adenocarcinoma (PaTu8988t) cells. The following applies: 48 h after treatment, ref [25],[26],[27],[28],[29],[30],[31],[32]; cited from earlier work.

pIC50: −log10 of the molar value. Like-named read-outs stand apart in the source and are kept apart here.

As a reminder, the pIC50 is the IC50 on a negative log10 scale, so that one unit is a factor of ten. In the case of `COc1ccc(S(=O)(=O)Nc2nc(-c3ccc(OC)cc3O)cs2)cc1` [Compound 13c, N-[4-(2-Hydroxy-4-methoxyphenyl)thiazol-2-yl]-4-methoxybenzenesulfonamide], the negative logarithm of the IC50 (pIC50) in [1] was 4.80; in [2], 5.00; in assay [3] it was under 4.30; in [4], 5.40; in assay [5], 5.36; in assay [6], 4.65. The pIC50 is 5.24 in assay [7] and 4.49 in the assay on BALB/3T3 cells [8].

Take `COc1ccc(-c2csc(NS(=O)(=O)c3ccc(C)cc3)n2)c(O)c1` [Compound 13b, N-[4-(2-Hydroxy-4-methoxyphenyl)thiazol-2-yl]-4-methylbenzenesulfonamide]: the pIC50 was 4.41 in assay [1]; under 4.30 in [2]; under 4.30 in assay [3]; 4.66 in [4]; 4.85 in assay [5]; under 4.30 in assay [6]. The pIC50 was 4.56 in assay [7] and under 4.30 with BALB/3T3 cells [8].

Turning to `COc1ccc(-c2csc(NS(=O)(=O)c3ccc(F)cc3)n2)c(O)c1` [Compound 13d, 4-Fluoro-N-[4-(2-hydroxy-4-methoxyphenyl)thiazol-2-yl]benzenesulfonamide], the pIC50 in assay [1] was 4.50; in [2], under 4.30; in assay [3], under 4.30; in [4] it was 5.14; in [5] it was 4.95; in assay [6] it was under 4.30. The values for the pIC50 (in assay [7]; in the assay on BALB/3T3 cells [8]) were 4.86 and under 4.30, respectively.

Turning to `COc1ccc(-c2csc(NS(=O)(=O)c3ccccc3)n2)c(O)c1` [Compound 13a, N-[4-(2-Hydroxy-4-methoxyphenyl)thiazol-2-yl]benzenesulfonamide], the pIC50 in [1] was 4.51; in assay [2], under 4.30; in assay [3] it was under 4.30; in [4], under 4.30; in assay [5], 4.68; in [6], under 4.30. In addition, the pIC50 (in [7]; with BALB/3T3 cells [8]) was under 4.30 each time.

As for `COc1ccc(-c2csc(NS(=O)(=O)c3ccc(Cl)cc3)n2)c(O)c1` [Compound 13e, 4-Chloro-N-[4-(2-hydroxy-4-methoxyphenyl)thiazol-2-yl]benzenesulfonamide], the pIC50 in assay [1] is under 4.30; in assay [2], under 4.30; in assay [3], under 4.30; in [4] it was under 4.30; in [5] it was 4.87; in [6], under 4.30. For the same compound, the negative logarithm of the IC50 (pIC50) (in [7]; in the assay with BALB/3T3 cells [8]) was under 4.30 each time.

Consider `COc1ccc(-c2csc(NS(=O)(=O)c3ccc([N+](=O)[O-])cc3)n2)c(O)c1` [Compound 13g, N-[4-(2-Hydroxy-4-methoxyphenyl)thiazol-2-yl]-4-nitrobenzenesulfonamide], for which the pIC50 in assay [1] is under 4.30; in assay [2] it was 4.52; in assay [3], under 4.30; in assay [4], under 4.30; in assay [5], 4.32; in [6], under 4.30. Moreover, the pIC50 in assay [7] was under 4.30; in the assay with BALB/3T3 cells [8] it was 4.49.

In the case of `COc1ccc(-c2csc(NS(=O)(=O)c3ccc(Br)cc3)n2)c(O)c1` [Compound 13f, 4-Bromo-N-[4-(2-hydroxy-4-methoxyphenyl)thiazol-2-yl]benzenesulfonamide], the pIC50 in assay [1] is 4.64; in assay [2], under 4.30; in assay [3], under 4.30; in assay [4], under 4.30; in assay [5], 4.96; in [6] it was under 4.30. In addition, the pIC50 is 4.79 in [7] and under 4.30 in the assay with BALB/3T3 cells [8].

For the compound `O=c1[nH]cc(F)c(=O)[nH]1` [Compound 5-FU, 5-fluorouracil, reference compound], the pIC50 in assay [9] is 6.63; in the assay on BALB/3T3 cells [10], 4.89; in [11], 5.31; in assay [1], 4.90; in assay [2] it was 5.04; in assay [12] it was 4.10. Moreover, the pIC50 is under 4.30 in [3]; 4.99 in assay [13]; 4.36 in [4]; 4.71 in assay [14]; 5.14 in [5]; under 4.30 in assay [6]. Besides, the pIC50 in assay [15] is 4.21; in assay [7], 5.66; with BALB/3T3 cells [8], 6.00; in [16], 4.95.
